According to USRE47193E1, “Selectively substituted quinoline compounds” (EISAI R&D MANAGEMENT CO., LTD., priority 2013, dated 2019):

How the values were obtained:
Mouse Splenocytes = experiment: Mouse spleen cell-based assay (R848, IL-6 ELISA); conditions: Mus musculus, Splenocyte, BALB/c spleen cells, 370 nM R848
Method: Mouse Spleen cell-based assay. Spleens were harvested from female BALB/c mice (Jackson Labs, Bar Harbor, Me.) euthanized by CO2. A single cell suspension was obtained by passing spleens through a 40 μm an nylon cell strainer. Cells were washed twice with 50 ml PBS (Mediatech, Inc., Manassas, Va.) and red blood cells were lysed in 5 ml RBC Lysis buffer (eBioscience, Inc., San Diego, Calif.) for 5 minutes at room temperature. Cells were washed twice more in PBS and finally resuspended in supplemented RPMI-1640 at 2.5×10^6 cells/ml. Cells were plated at 100 μl/well (2.5×10^5 cells/well) in 96-well tissue culture treated plates (Falcon). Serial dilutions of compounds solubilized in 100% DMSO were added in triplicate to cells to yield a final concentration of 0.1% DMSO. Cells were incubated with compound for 30 minutes at 37° C., 5% CO2 before adding 100 μl/well of 740 nM R848 (Resiquimod; GLSynthesis, Worcester, Mass.) in complete media for a final concentration of 370 nM R848. Cells were incubated for 20 hours at 37° C., 5% CO2. Culture supernatants were collected, and levels of IL-6 were assessed by standard ELISA procedure according to the manufacturer's recommended protocol (BD Biosciences, Inc., San Diego, Calif.).

mouse TLR7 = target: T1, mouse TLR7 (Mus musculus, UniProt P58681); experiment: Short-term in vivo (STIV) assay: oral dosing, R848 s.c., plasma IL-6; parameters: female BALB/c mice (Jackson Labs, Bar Harbor, Me.) were dosed by oral gavage; tissue Jackson Labs; host or cells: living female BALB/c mice; plasma IL-6 after s.c. R848; conditions: for short-term in vivo suppression of the TLR7 pathway (plasma IL-6): 33, 100 or 300 mg/kg oral, 6, 13 or 24 hours, FIG. 1
T1 sequence (P58681 27-1050): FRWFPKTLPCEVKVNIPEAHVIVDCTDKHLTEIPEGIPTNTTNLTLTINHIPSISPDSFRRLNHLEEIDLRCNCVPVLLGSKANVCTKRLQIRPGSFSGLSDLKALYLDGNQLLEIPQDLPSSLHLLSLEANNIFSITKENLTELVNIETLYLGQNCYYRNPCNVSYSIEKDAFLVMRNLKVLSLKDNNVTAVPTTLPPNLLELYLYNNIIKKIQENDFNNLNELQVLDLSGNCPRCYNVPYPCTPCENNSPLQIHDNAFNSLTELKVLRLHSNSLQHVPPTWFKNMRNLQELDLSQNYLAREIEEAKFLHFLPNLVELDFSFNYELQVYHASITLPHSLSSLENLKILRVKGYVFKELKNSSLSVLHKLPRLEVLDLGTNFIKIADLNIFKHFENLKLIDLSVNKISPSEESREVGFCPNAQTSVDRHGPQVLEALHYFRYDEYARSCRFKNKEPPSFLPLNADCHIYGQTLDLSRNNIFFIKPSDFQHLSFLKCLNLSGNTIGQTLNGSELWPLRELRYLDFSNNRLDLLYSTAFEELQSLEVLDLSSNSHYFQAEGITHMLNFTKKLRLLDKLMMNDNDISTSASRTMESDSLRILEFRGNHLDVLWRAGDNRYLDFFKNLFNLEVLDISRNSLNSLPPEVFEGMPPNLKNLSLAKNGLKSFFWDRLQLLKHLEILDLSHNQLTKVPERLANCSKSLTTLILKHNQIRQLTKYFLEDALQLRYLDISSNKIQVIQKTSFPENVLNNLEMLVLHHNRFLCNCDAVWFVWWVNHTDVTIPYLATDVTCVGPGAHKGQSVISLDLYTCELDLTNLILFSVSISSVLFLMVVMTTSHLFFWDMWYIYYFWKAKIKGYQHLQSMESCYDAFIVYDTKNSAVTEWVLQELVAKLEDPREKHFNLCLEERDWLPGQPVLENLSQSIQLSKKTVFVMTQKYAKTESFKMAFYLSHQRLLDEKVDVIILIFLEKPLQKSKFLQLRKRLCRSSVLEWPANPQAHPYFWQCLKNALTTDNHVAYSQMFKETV
In short: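 Female BALB/c mice (6–8 weeks) dosed orally with compound in 0.5% aqueous methyl-cellulose at 33, 100 or 300 mg/kg; at various times afterwards given 15 ug R848 s.c. to stimulate TLR7. Plasma IL-6 measured by ELISA to gauge potency and duration of action.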

SMILES	IC50 (Mouse Splenocytes) [µM]	% Suppression vs. Vehicle (mouse TLR7; 3 h, 33 mg/kg) [%]	% Suppression vs. Vehicle (mouse TLR7; 3 h, 100 mg/kg) [%]	% Suppression vs. Vehicle (mouse TLR7; 3 h, 300 mg/kg) [%]	% Suppression vs. Vehicle (mouse TLR7; 6 h, 33 mg/kg) [%]	% Suppression vs. Vehicle (mouse TLR7; 6 h, 100 mg/kg) [%]	% Suppression vs. Vehicle (mouse TLR7; 6 h, 300 mg/kg) [%]	% Suppression vs. Vehicle (mouse TLR7; 19 h, 33 mg/kg) [%]	% Suppression vs. Vehicle (mouse TLR7; 19 h, 100 mg/kg) [%]	% Suppression vs. Vehicle (mouse TLR7; 19 h, 300 mg/kg) [%]	further results
C[C@@H]1CN(c2ccc(C#N)c3ncccc23)C[C@H](C)O1 [ER-878952]	1.61										% Suppression vs. Vehicle (mouse TLR7; 12 h, 200 mg/kg): 93%; % Suppression vs. Vehicle (mouse TLR7; 12 h, 600 mg/kg): 95%; % Suppression vs. Vehicle (mouse TLR7; 18 h, 200 mg/kg): 90%; % Suppression vs. Vehicle (mouse TLR7; 18 h, 600 mg/kg): 96%
C[C@@H]1CN(c2ccc(C#N)c3ncccc23)C[C@H](CO)O1 [ER-885493, 5-((2R,6R)-2-(hydroxymethyl)-6-methylmorpholino)quinoline-8-carbonitrile]	0.517										% Suppression vs. Vehicle (mouse TLR7; 3 h, 22 mg/kg): 39%; % Suppression vs. Vehicle (mouse TLR7; 3 h, 67 mg/kg): 86%; % Suppression vs. Vehicle (mouse TLR7; 3 h, 200 mg/kg): 88%; % Suppression vs. Vehicle (mouse TLR7; 5 h, 22 mg/kg): 26%; % Suppression vs. Vehicle (mouse TLR7; 5 h, 67 mg/kg): 99%; % Suppression vs. Vehicle (mouse TLR7; 5 h, 200 mg/kg): 94%; % Suppression vs. Vehicle (mouse TLR7; 12 h, 400 mg/kg): 76%; % Suppression vs. Vehicle (mouse TLR7; 18 h, 22 mg/kg): 0%; % Suppression vs. Vehicle (mouse TLR7; 18 h, 67 mg/kg): 5%; % Suppression vs. Vehicle (mouse TLR7; 18 h, 200 mg/kg): 29%
CC1CN(c2ccc(C#N)c3ncccc23)CC(CN2CCCC2CO)O1 (stereo not drawn) [ER-886814]		93	100	100	57	100	100	14	19	100	
C[C@@H]1CN(c2ccc(C#N)c3ncccc23)C[C@H](CN2CC[C@H](O)C2)O1 [ER-886820]		93	100	100	68	96	100	43	35	39	
C[C@@H]1CN(c2ccc(C#N)c3ncccc23)C[C@H](CN2CCC(O)CC2)O1 [ER-886953]		99	99	99	99	99	99	23	45	99	
C[C@@H]1CN(c2ccc(C#N)c3ncccc23)C[C@H](CNC2CCCC2)O1 [ER-887145]		97	99		91	99		0	96		% Suppression vs. Vehicle (mouse TLR7; 3 h after oral dose, 11 mg/kg): 67%; % Suppression vs. Vehicle (mouse TLR7; 6 h, 11 mg/kg): 32%; % Suppression vs. Vehicle (mouse TLR7; 19 h, 11 mg/kg): 0%
C[C@@H]1CN(c2ccc(C#N)c3ncccc23)C[C@H](CN2CCNCC2)O1 [ER-887253]	0.049										
C[C@@H]1CN(C[C@H]2CN(c3ccc(C#N)c4ncccc34)C[C@@H](C)O2)CCN1 [ER-887269]					95	100	98	9	58	95	
CC1CNC(=O)CN1C[C@H]1CN(c2ccc(C#N)c3ncccc23)C[C@@H](C)O1 (stereo partly drawn) [ER-887722]	0.463										
C[C@@H]1CN(c2ccc(C#N)c3ncccc23)C[C@H](CN2CCN(C)CC2)O1 [ER-887723]	0.047				100	100	100	77	97	100	
CCCN1CCN(C[C@H]2CN(c3ccc(C#N)c4ncccc34)C[C@@H](C)O2)CC1 [ER-887724]	0.07	99	99	99	99	99	99	83	91	99	
CC1CN(c2ccc(C#N)c3ncccc23)CC(CN2CCC(N(C)C)CC2)O1 (stereo not drawn) [ER-887725]		99	99	99	99	99	99	90	91	99	
C[C@@H]1CN(c2ccc(C#N)c3ncccc23)C[C@H](CN2CCC(N3CCCCC3)CC2)O1 [ER-887927, 5-((2S,6R)-2-([1,4′-bipiperidin]-1′-ylmethyl)-6-methylmorpholino)quinoline-8-carbonitrile]	0.026				100	100	100	98	100	100	% Suppression vs. Vehicle (mouse TLR7; 19 h, 1.22 mg/kg): 56%; % Suppression vs. Vehicle (mouse TLR7; 19 h, 3.67 mg/kg): 70%; % Suppression vs. Vehicle (mouse TLR7; 19 h, 11 mg/kg): 94%
CC(=O)NC1CCN(CC2CN(c3ccc(C#N)c4ncccc34)CC(C)O2)CC1 (stereo not drawn) [ER-888288]	0.135	100	98		78	99	97	50	53		% Suppression vs. Vehicle (mouse TLR7; 24 h, 33 mg/kg): 14%; % Suppression vs. Vehicle (mouse TLR7; 24 h, 100 mg/kg): 0%; % Suppression vs. Vehicle (mouse TLR7; 24 h, 300 mg/kg): 55%
C[C@@H]1CN(c2ccc(C#N)c3ncccc23)C[C@H](C(=O)NC2CCN(C)CC2)O1 [ER-899464, (2R,6R)-4-(8-cyanoquinolin-5-yl)-6-methyl-N-(1-methylpiperidin-4-yl)morpholine-2-carboxamide]						99					short-term in vivo suppression of the TLR7 pathway (plasma IL-6) (mouse TLR7): suppression of the TLR7 pathway; % Suppression vs. Vehicle (mouse TLR7; 13 h, 100 mg/kg): 96%
C[C@@H]1CN(c2ccc(C#N)c3ncccc23)C[C@H](C(=O)N[C@H]2CNC[C@H]2F)O1.Cl [ER-899742, (2R,6R)-4-(8-cyanoquinolin-5-yl)-N-[(3S,4R)-4-fluoropyrrolidin-3-yl]-6-methylmorpholine-2-carboxamide hydrochloride]						100					short-term in vivo suppression of the TLR7 pathway (plasma IL-6) (mouse TLR7): suppression of the TLR7 pathway; % Suppression vs. Vehicle (mouse TLR7; 13 h, 100 mg/kg): 61%; duration of full suppression of the R848/TLR7/IL-6 pathway in vivo (mouse TLR7; single oral dose 300 mg/kg): at least 24 hours
